Experimental data reported in patent publication US20200024223A1, “CRYSTALLINE SALTS OF (4S,4AS,5AR,12AS)-4-DIMETHYLAMINO-3,10,12,12A-TETRAHYDROXY-7-[(METHOXY(METHYL)AMINO)-METHYL]-1,11-DIOXO-1,4,4A,5,5A,6,11,12A-OCTAHYDRO-NAPHTHACENE-2-CARBOXYLIC ACID AMIDE AND METHODS OF USING THE SAME” (priority 2011, published 2020).
Values after ≈ are worked out from the molar mass of the structure shown. Where two headings read alike, the source gives them in different places.

Key:
[1] = Differential scanning calorimetry (DSC); format: physicochemical; settings: after synthesis
Description: DSC analysis as disclosed herein was collected on a TA Instruments Q2000 equipped with a 50 position auto-sampler. The instrument was calibrated for energy and temperature using certified indium. The calibration for thermal capacity was carried out using sapphire. […] A nitrogen purge at 50 ml.min^−1 was maintained over the sample. The instrument control software used was Advantage for Q Series v2.8.0.392 and Thermal Advantage v4.8.3 and the data was analyzed using Universal Analysis v4.4A. […] The observed apparent weight loss is due to instability of the machine. Table 5 below compares the DSC and TGA analysis of the crystalline salts of the present invention with the crystalline free base and Comparative Example 1.

[2] = Storage stability by HPLC-UV (chemical purity, β-isomer content, total impurity content); format: physicochemical
Description: The lower the β-isomer content, the higher the chemical purity of the salt. The β-isomer content is measured after synthesis of the salt and compared with the measured β-isomer content after storage for a designated period of time.
Another measure of chemical purity is defined by the content of other related impurities, by-products or degradation products of the salt, which represents the […] of the compound. The lower the content of total impurities as measured by HPLC, generally, by HPLC-UV, the higher the chemical purity of the salt. The total impurity content is measured after synthesis of the salt and compared with the measured total impurity content after storage for a designated period of time.
In order to determine the stability of Crystalline Mono Hydrochloride Salt, the β-isomer content of the salt was determined by HPLC-UV analysis and compared to the β-isomer content calculated after the salt was stored in an amber glass vial for approximately 75 days at ambient conditions.
The β-isomer content of Comparative Example 2 was also determined by HPLC-UV analysis at 0 days and compared to the β-isomer content calculated after the compound was stored in a clear glass vial for approximately 75 days at ambient conditions.
HPLC-UV and XRPD analysis were conducted on samples of Crystalline Mono Hydrochloride Salt, Crystalline Mesylate Salt and Crystalline Sulfate Salt at 0 days and after storage for 7 days at 40° C. and 75% RH. FIGS. 1, 4 and 7 show the XRPD analysis of the Crystalline Mono Hydrochloride Salt, Crystalline Mesylate Salt and Crystalline Sulfate Salt at 0 days and after storage at 40° C. and 75% RH with the graphs overlaid for comparison.
The results of HPLC-UV analysis for the same samples of Crystalline Mesylate Salt and Crystalline Sulfate Salt are shown in Table 4.

[3] = Thermo-gravimetric analysis (TGA); format: physicochemical
Description: TGA is used to determine changes in weight in relation to change in temperature, which may reveal degradation of the compound and the presence of solvates or hydrates. TGA analysis as disclosed herein was collected on a TA Instruments Q500 TGA equipped with a 16 position auto-sampler. The instrument was temperature calibrated using certified Alumel and Nickel. […] A nitrogen purge at 60 ml.min^−1 was maintained over the sample. The instrument control and data analysis software used was Advantage for Q Series v2.8.0.392 and Thermal Advantage v4.8.3 and the data was analyzed using Universal Analysis v4.4A. […] The observed apparent weight loss is due to instability of the machine. Table 5 below compares the DSC and TGA analysis of the crystalline salts of the present invention with the crystalline free base and Comparative Example 1.

S. aureus RN450-1 [4] = test: S. aureus Systemic Intraperitoneal Challenge (IPC) Model; format: in vivo; settings: CD-1 male mice, single SC dose 1 hour post infection, survival at 48 hours post infection
Description: Bacterial cultures were prepared by growing tetracycline-sensitive S. aureus RN450-1 overnight, then diluting with sterile phosphate-buffered saline (PBS). For each experiment, a total of 30 mice were infected by injection into the intraperitoneal cavity with 500 μl of 7.5×10^7 CFU in 5% sterile bacteriological mucin. […] The doses were administered subcutaneously (SC) at 1 hour post infection. An additional infected group of 5 mice was included as a negative control (untreated) group. For all studies but one, a positive control group(s) was included (e.g., doxycycline, minocycline, or ciprofloxacin). Mice were monitored for survival for up to 7 days. […] PD50 (protective dose, 50%) is the dose required to achieve 50% survival. The PD50 values reported are a mean of 2-3 independent experiments for each drug tested.

E. coli = test: In vitro MIC testing, antibacterial spectrum of activity; format: cell-based
Salmonella spp. = test: as above; format: cell-based
S. pneumoniae PBS 1339 = settings: neutropenic CD-1 male mice, single IV dose 2 hours post infection, survival at 72 hours post infection
S. aureus RN450-1 [5] = test: S. aureus Thigh Wound Infection Model; format: in vivo; settings: Staphylococcus aureus, RN4501, in Mus musculus, iv, read-out: S. aureus RN450-1 Thigh ED50
Description: Bacterial cultures were prepared by growing S. aureus RN450-1 overnight and diluting with sterile PBS. An injection of 100 μL of ˜1×10^6 CFU/mL in sterile PBS was injected into the thigh. Four groups of mice for each drug received doses of 0.33, 1, 3, or 9 mg/kg intravenously at 2 and 6 hours post infection. An additional group of untreated mice served as a negative control group. At 24 hours post infection, the thighs were collected aseptically, homogenized, and plated to enumerate bacterial load per thigh. Data are reported as ED50 values.

[6] = test system: Carrageenan-Induced Rat Footpad Edema; test: Rat Carrageenan-Induced Footpad Edema inflammation model; format: in vivo; settings: 3 hours post carrageenan
Description: Immediately following the carrageenan injection and 3 hours post-injection, the hind paw volume was measured with a digital water plethysmometer. Results were calculated as a percent change in paw volume over the 3 hours, divided by the baseline paw volume, and then adjusted for the mean percent inflammation in the untreated controls, and are presented in Table 10.

[7] = test system: Streptococcus constellatus; test: In vitro MIC testing against anaerobic bacteria; format: cell-based; settings: ATCC27823
[8] = test system: Prevotella melaninogenica; test: In vitro MIC testing against anaerobic bacteria; format: cell-based
S. pneumoniae = test: In vitro MIC testing, antibacterial spectrum of activity; format: cell-based, Streptococcus pneumoniae; settings: Streptococcus pneumoniae, PSSP, all but 3 strains inhibited
E. cloacae = test: as above; format: cell-based; settings: Enterobacter cloacae, 7 of 30 strains inhibited
[9] = test system: Streptococcus spp. [Group C]; test: as above; format: cell-based; settings: Streptococcus, Group C streptococci
E. faecium = test: as above; format: cell-based; settings: Enterococcus faecium, vancomycin-susceptible E. faecium
S. pyogenes = test: as above; format: cell-based; settings: Streptococcus pyogenes, S. pyogenes
S. agalactiae = test: as above; format: cell-based; settings: Streptococcus agalactiae, S. agalactiae
Staphylococcus aureus = test: Inhibition of macromolecular synthesis in Staphylococcus aureus (whole-cell assay); format: cell-based; settings: S. aureus, at 8-fold the MIC
[10] = Escherichia coli, read-out: MIC50
[11] = Escherichia coli, read-out: MIC90

Question: For CON(C)Cc1ccc(O)c2c1C[C@H]1C[C@H]3[C@H](N(C)C)C(O)=C(C(N)=O)C(=O)[C@@]3(O)C(O)=C1C2=O [Comparative Example 1, (4S,4aS,5aR,12aS)-4-dimethylamino-3,10,12,12a-tetrahydroxy-7-[(methoxy(methyl)amino)-methyl]-1,11-dioxo-1,4,4a,5,5a,6,11,12a-octahydro-naphthacene-2-carboxylic acid amide], which “Differential Scanning Calorimetry” value [1] is on record?
Answer: Broad endothermic

Question: And the “β-isomer content at 0 days” value ([2]; 0 days)?
Answer: 3.6 % peak area

Question: What about the “β-isomer content after storage” value ([2]; 48 hours at about 40° C. and about 75% RH) of the same molecule?
Answer: 31.7 % peak area

Question: What about the “β-isomer content after storage” value ([2]; 36 days at about 25° C. and about 60% RH) of the same molecule?
Answer: 8.7 % peak area

Question: What about the “total impurity content at 0 days” value ([2]; HPLC-UV, 0 days) of the same molecule?
Answer: 4.2 % peak area

Question: And the “total impurity content after storage” value ([2]; about 2 days at about 40° C. and about 75% RH)?
Answer: 34.6 % peak area

Question: What about the TGA weight loss ([3]; from about 30° C. to about 106° C.) of the same molecule?
Answer: 7% weight loss from about 30 °C to

Question: And the TGA weight loss ([3]; from about 106° C. to about 200° C.)?
Answer: 8% weight loss from about 106 °C

Question: And the TGA weight loss ([3]; from about 200° C. to about 300° C.)?
Answer: 23% weight loss from about 200 °C

Question: Which “S. aureus RN450-1 IPC PD50” value (S. aureus RN450-1 [4]) does the source give for C[C@H]1c2cccc(O)c2C(=O)C2=C(O)[C@]3(O)C(=O)C(C(N)=O)=C(O)[C@@H](N(C)C)[C@@H]3[C@@H](O)[C@@H]21 [Doxycycline, doxycycline] here?
Answer: 0.30 mg/kg

Question: What about the “MIC Range” value (E. coli) of the same molecule?
Answer: 64-64 μg/mL

Question: What about the MIC (E. coli; Escherichia coli) of the same molecule?
Answer: 64 µg/mL (≈ 144 µM)

Question: And the MIC50 (E. coli; [10])?
Answer: 2 µg/mL (≈ 4.5 µM)

Question: And the MIC90 (E. coli; [11])?
Answer: 32 µg/mL (≈ 72 µM)

Question: And the MIC50 (Salmonella spp.)?
Answer: 2 µg/mL (≈ 4.5 µM)

Question: What about the MIC90 (Salmonella spp.) of the same molecule?
Answer: 32 µg/mL (≈ 72 µM)

Question: And the “S. pneumoniae PBS1339 RTI PD50” value (S. pneumoniae PBS 1339)?
Answer: 7.18 mg/kg

Question: And the ED50 (S. aureus RN450-1 [5])?
Answer: 8.31 mg/kg

Question: What about the “Mean Percent Inflammation Compared to Untreated Controls” value ([6]; 75 mg/kg IP) of the same molecule?
Answer: 68%

Question: What about the “Mean Percent Inflammation Compared to Untreated Controls” value ([6]; 100 mg/kg IP) of the same molecule?
Answer: 36%

Question: For CN(C)c1ccc(O)c2c1C[C@H]1C[C@H]3[C@H](N(C)C)C(O)=C(C(N)=O)C(=O)[C@@]3(O)C(O)=C1C2=O [Minocycline, minocycline], which “S. aureus RN450-1 IPC PD50” value (S. aureus RN450-1 [4]) is on record?
Answer: 0.03 mg/kg

Question: What about the “MIC Range” value (E. coli) of the same molecule?
Answer: 8 to 16 µg/mL

Question: What about the MIC (E. coli; Escherichia coli) of the same molecule?
Answer: 16 µg/mL (≈ 35 µM)

Question: And the MIC50 (E. coli; [10])?
Answer: 1 µg/mL (≈ 2.19 µM)

Question: And the MIC90 (E. coli; [11])?
Answer: 8 µg/mL (≈ 17.5 µM)

Question: And the MIC90 (Salmonella spp.)?
Answer: 8 µg/mL (≈ 17.5 µM)

Question: What about the MIC [7] of the same molecule?
Answer: 16 µg/mL (≈ 35 µM)

Question: What about the MIC [8] of the same molecule?
Answer: 16 µg/mL (≈ 35 µM)

Question: What about the “Mean Percent Inflammation Compared to Untreated Controls” value ([6]; 25 mg/kg IP) of the same molecule?
Answer: 47%

Question: And the “Mean Percent Inflammation Compared to Untreated Controls” value ([6]; 50 mg/kg IP)?
Answer: 33%

Question: And the “Mean Percent Inflammation Compared to Untreated Controls” value ([6]; 75 mg/kg IP)?
Answer: 54%

Question: What about the “Mean Percent Inflammation Compared to Untreated Controls” value ([6]; 100 mg/kg IP) of the same molecule?
Answer: 21%

Question: What does the source list for CON(C)Cc1ccc(O)c2c1C[C@H]1C[C@H]3[C@H](N(C)C)C(O)=C(C(N)=O)C(=O)[C@@]3(O)C(O)=C1C2=O [The Active, (4S,4aS,5aR,12aS)-4-dimethylamino-3,10,12,12a-tetrahydroxy-7-[(methoxy(methyl)amino)-methyl]-1,11-dioxo-1,4,4a,5,5a,6,11,12a-octahydro-naphthacene-2-carboxylic acid amide]?
Answer: MIC (S. pneumoniae): ≤ 0.25 µg/mL; S. aureus RN450-1 IPC PD50 (S. aureus RN450-1 [4]): 0.25 mg/kg; MIC50 (E. coli): 16 µg/mL (≈ 32.8 µM); MIC90 (E. coli): > 64 µg/mL; MIC50 (E. coli; Escherichia coli, E. coli (33 isolates), read-out: MIC50): 16 µg/mL (≈ 32.8 µM); MIC50 (Salmonella spp.): 16 µg/mL (≈ 32.8 µM); S. pneumoniae PBS1339 RTI PD50 (S. pneumoniae PBS 1339): 4.66 mg/kg; ED50 (S. aureus RN450-1 [5]): 8.23 mg/kg; MIC (E. cloacae): ≤ 1 µg/mL; MIC ([9]; 19 strains inhibited): ≤ 0.25 µg/mL; MIC ([9]; remainder of the isolates): 4 to 16 µg/mL (≈ 8.2 to 32.8 µM); MIC (E. faecium; 17 strains inhibited): ≤ 0.5 µg/mL; MIC (E. faecium; remainder of the isolates): 16 to 32 µg/mL (≈ 32.8 to 65.6 µM); MIC (S. pyogenes; all but 6 strains inhibited): ≤ 0.25 µg/mL; MIC (S. pyogenes; elevated MICs for 5 strains): ≥ 4 µg/mL; MIC (S. agalactiae; 7 strains inhibited): ≤ 0.25 µg/mL; MIC (S. agalactiae; remainder of the isolates): 16 to 32 µg/mL (≈ 32.8 to 65.6 µM); Mean Percent Inflammation Compared to Untreated Controls ([6]; 1 mg/kg IP): 103%; Mean Percent Inflammation Compared to Untreated Controls ([6]; 5 mg/kg IP): 78%; Mean Percent Inflammation Compared to Untreated Controls ([6]; 10 mg/kg IP): 65%; Mean Percent Inflammation Compared to Untreated Controls ([6]; 25 mg/kg IP): 59%; Mean Percent Inflammation Compared to Untreated Controls ([6]; 50 mg/kg IP): 52%; Mean Percent Inflammation Compared to Untreated Controls ([6]; 75 mg/kg IP): 56%; Mean Percent Inflammation Compared to Untreated Controls ([6]; 100 mg/kg IP): 53%; Mean Percent Inflammation Compared to Untreated Controls ([6]; 150 mg/kg IP): 26%; inhibition for the synthesis of cell wall, DNA, RNA and lipid components (Staphylococcus aureus): less than 20%
